In patent US10214502B2, “Method of inhibiting apolipoprotein-E expression while increasing expression of at least one of LDL-receptor protein or AbcA1 protein comprising administering a small compound” (California State University, Fresno, priority 2016, dated 2019):
Entries after “also recorded” stand apart in the source; their conditions may differ.

Key:
[1] = test system: apoE3; test: ELISA of apoE3 levels in conditioned media of compound-treated mouse cortical astrocyte cells; format: cell-based; details: for ApoE3 Levels in Cell Media, Average of Three Tests / ApoE3 Levels in Cell Media, Test 1 / ApoE3 Levels in Cell Media, Test 2 / ApoE3 Levels in Cell Media, Test 3: 10 μM compound, 24 hours, normalized to cell protein, relative to DMSO treated cells
Protocol: ApoE inhibition can be readily determined by any one of several assays and techniques known to those of ordinary skill in the art, including the enzyme-linked immunosorbant assay (ELISA). In the experimental results shown in Table 2 and FIG. 5, the ELISA assay was carried out on cortical astrocyte cells from mice. Astrocyte cells produce apoE, LDLR and AbcA1 proteins.
The experiments involved treating mouse cortical astrocyte cells with the claimed compounds at 10 μM concentration for an incubation time of 24 hrs. DMSO solvent was used as a negative control, because the compounds were dissolved in DMSO when applied to the cells.
The ELISA technique involves immobilizing an apoE-specific capture antibody to a 96-well plate, addition of sample (conditioned medium from mouse cortical astrocyte cells treated with the compound for 24 hours), and detection of the bound apoE using a second apoE-specific biotinylated antibody and streptavidin-HRP.
The Mabtech ELISA kit detects the presence of the three apoE isoforms: apoE2, apoE3, and apoE4.
To obtain the data shown in Table 2 and FIG. 5, the mouse cortical astrocyte cells were maintained in DMEM medium (Invitrogen) supplemented with 10 mM HEPES, 1 mM sodium pyruvate, 4.5 g/L glucose, 1% penicillin/streptomycin, and 10% fetal bovine growth serum (Invitrogen) at 37° C., with 5% CO2.
The cells (6×10^4 cells/24-well plate) were grown for 1 day in RPMI, followed by a 24 hour equilibration in serum-free Opti-MEM (Life Technologies). Treatments were carried out in triplicate with […] of fresh Opti-MEM containing 10 μM of compound or vehicle (0.1% DMSO) for 24 hours. […] ApoE concentration in the sample was calculated based on a standard curve derived using known amounts of purified apoE (from Biodesign).
The protein levels in the cells in the 24-well plates were measured using BCA Protein Assay Kit (from Pierce) and used to normalize the data. […] Sample apoE3 concentrations were represented relative to the DMSO treated cells.
The bars in FIG. 5 reflect the respective mean level apoE3 in the media for each compound with an indication of one […].

[2] = test system: AbcA1; test: SDS-PAGE/Western blot of AbcA1 expression in E3 astrocyte cells; format: cell-based, mouse; details: 10 μM, 24 hrs, Western blot, FIGS. 6 and 7
Description: (§1) Western blot protocol and analysis was used to determine the LDLR levels in the E3 astrocyte cells. The western blot, otherwise known as a protein immunoblot, is a widely used analytical technique used to detect specific proteins in a cell culture or tissue sample. It uses gel electrophoresis to separate proteins by 3-D structure or denatured proteins by the length of the polypeptide. The proteins are then transferred to a membrane (typically nitrocellulose or PVDF), where they are stained with antibodies specific to the target protein. […] FIGS. 6 and 7 show gel images showing the effects the claimed compounds have on the target proteins. The protein bands show the presence and amount of each target protein present in the media from treated cells (compound numbers shown in the column headers).
(§2) In this case, after the 24-hour culture period, the treated cell media from cells treated with each respective compound were run by electrophoresis on polyacrylamide gel containing sodium dodecyl sulfate (SDS). The proteins from the SDS-PAGE process were then transferred to a nitrocellulose […] and stained.
(§3) FIGS. 6 and 7 show the presence of the following proteins in mouse E3 astrocyte cells: AbcA1, LDLR, ApoE3, and GAPDH. The GAPDH protein serves as the loading control protein for the western blot analysis. For each of the claimed compounds, FIGS. 6 and 7 show three samples run to determine the presence and amount of each indicated protein. The three samples for each treatment compound are indicated by the line under the compound number—the line stretches across three columns of protein bands.
AbcA1 protein plays a key role in regulating cholesterol in biological systems and therefore affects amyloid beta plaque formation. The goal of the biological screen (results shown in FIGS. 6 and 7) was to find compounds that prevent amyloid beta (Aβ) plaque formation, one of the deleterious causes of Alzheimer's Disease.
(§4) The E3 astrocyte cells (1.6×10^4 cells/96-well plate) were grown for 1 day in RPMI, followed by a 24 hour equilibration in serum-free Opti-MEM (Life Technologies). Treatments were carried out in triplicate with […] of fresh Opti-MEM containing 10 μM of compound or vehicle (0.1% DMSO) for 24 hours. After the incubation time, the cellular media was collected as samples.
(§5) The collected samples were prepared for SDS-PAGE and western blot analysis by centrifuging and then extracting the protein by TCA-precipitation. The extracted protein was then resuspended in a Tris buffer.
(§6) After incubation and collection, the samples were run on a SDS-polyacrylamide gel (10% SDS). The SDS-polyacrylamide gel comprises the following:
(§7) Each sample was prepared to run on the SDS-polyacrylamide gel. About 20 μL of each sample was prepared to be run in the gel. The samples were prepared comprising the following:
(§8) The SDS-PAGE process was run with SDS-PAGE running buffer (Tris base, glycine, and 10% SDS) at 150 V until the dye front reached the bottom of the gel.
(§9) For the western blot portion of the analysis, the separated protein bands in the gel are then transferred to a nitrocellulose membrane by methods well known in the art. Following the western blot transfer, the blot is rinsed several times with dH2O to remove the salts. After blocking unreacted sites on the nitrocellulose membrane, all protein bands are stained with 0.5% Ponceau S (0.5 g Ponceau S, 1 ml Glacial HAc, 99 ml dH2O) and the target protein antibody.
(§10) The antibodies used for staining AbcA1 were obtained from Novus (NB100-2068). The antibodies used for staining LDLR were obtained from MBL International (JM-3839). The antibodies used for staining intracellular apoE were obtained from Meridian Life Science (K74180B). The antibodies used for staining GAPDH were obtained from Santa Cruz (sc-25778).

[3] = test system: LDLR; test: SDS-PAGE/Western blot of LDLR expression in E3 astrocyte cells; format: cell-based, mouse; details: 10 μM, 24 hrs, Western blot, FIGS. 6 and 7
Protocol: Experiments were set up to test whether the claimed compounds increase LDLR expression in cortical astrocyte cells. The experiments involved treating mouse cortical astrocyte cells (E3 astrocyte cells) with the claimed compounds at 10 μM concentration for an incubation time of 24 hrs. DMSO solvent was used as a negative control, because the compounds were dissolved in DMSO when applied to the cells.
as §1, §2, §3, §4, §5, §6, §7, §8, §9, §10

Compound | ApoE3 Levels in Cell Media, Average of Three Tests [1] | ApoE3 Levels in Cell Media, Test 1 [1] | ApoE3 Levels in Cell Media, Test 2 [1] | ApoE3 Levels in Cell Media, Test 3 [1] | apoE (apoE3) expression compared to the control DMSO, in words ([1]; 10 μM, 24 hrs, ELISA of media) | AbcA1 expression compared to the DMSO control [2] | LDLR expression (amount of LDLR protein) compared to the DMSO control [3]
c1ccc(C(c2ccccc2)(c2ccc3ccccc3c2)N2CCOCC2)cc1 [Triarylmethyl Amine Compound No. 38, reference compound] | 79.07 % of the DMSO control | 76.4862 % of the DMSO control | 92.35 % of the DMSO control | 68.38 % of the DMSO control | effectively decrease | significantly decrease or inhibit; also recorded: decrease | 
O=S(=O)(c1ccc(-c2ccccc2)cc1)N1CCOCC1 [Compound 134] | 84.75 % of the DMSO control | 81.07 % of the DMSO control | 90.3 % of the DMSO control | 82.89 % of the DMSO control |  | increase | increased
O=S(=O)(c1ccc2ccccc2c1)N1CCCCC1 [Compound 97] | 86.86 % of the DMSO control | 90.22 % of the DMSO control | 90.28 % of the DMSO control | 80.08 % of the DMSO control |  |  | increase
O=S(=O)(NCc1ccccc1)c1cccc2ccccc12 [Compound 125] | 88.78 % of the DMSO control | 82.44 % of the DMSO control | 91.39 % of the DMSO control | 92.51 % of the DMSO control |  | increase | increased
CC(NS(=O)(=O)c1ccc(-c2ccccc2)cc1)c1ccccc1 (stereo not shown) [Compound 137] | 88.63 % of the DMSO control | 79.41 % of the DMSO control | 86.65 % of the DMSO control | 99.83 % of the DMSO control |  |  | increase
O=C(Nc1ccccc1)c1ccc2ccccc2c1 [Compound 98] | 76.25 % of the DMSO control | 74.22 % of the DMSO control | 79 % of the DMSO control | 75.5362 % of the DMSO control |  | decrease | 
CC(C)CNC(=O)c1ccc2ccccc2c1 [Compound 89] | 129.8502 % of the DMSO control | 110.4906 % of the DMSO control | 131.1414 % of the DMSO control | 147.9187 % of the DMSO control |  |  | increase
CCN(CC)S(=O)(=O)c1ccc2ccccc2c1 [Compound 129] | 81.14 % of the DMSO control | 80.4063 % of the DMSO control | 82.82 % of the DMSO control | 80.19 % of the DMSO control |  | decrease | 
